Tests used:
Format in all cases: cell-based, influenza virus H7N9
[1] = tested on: A/Shanghai/1/2013-NA^R292 (WT no. 6) virus; test: organism not typed
A/Shanghai/2/2013 virus = test: organism not typed
[2] = tested on: A/Shanghai/1/13 virus (mixed R/K at NA residue 292)
[3] = MDCK, read-out: 90% effective concentration [EC90]

Row | SMILES | EC90 [1, 3] [µM] | EC90 (A/Shanghai/2/2013 virus; [3]) [µM] | sensitivity in MDCK cells relative to the A/Shanghai/2/2013 virus [2] | concentration at which replication was completely inhibited [1] [µM] | sensitivity in MDCK cells compared to the A/Shanghai/2/2013 virus [1] | concentration at which replication was completely inhibited (A/Shanghai/2/2013 virus) [µM]
1 | NC(=O)c1nc(F)c[nH]c1=O [favipiravir] | 10.4 | 1.43 | comparable dose-response curves | – | – | –
2 | CC(=O)N[C@H]1[C@H]([C@H](O)[C@H](O)CO)OC(C(=O)O)=C[C@@H]1N=C(N)N [zanamivir] | – | – | – | > 125 | reduced sensitivity | 125
3 | CCC(CC)O[C@@H]1C=C(C(=O)O)C[C@H](N)[C@H]1NC(C)=O [oseltamivir carboxylate] | – | – | – | 250 | reduced sensitivity | 31.25
